# Assay results as given in patent publication US5783597A, “2,5-disubstituted thiophenes: inhibitors of 5-lipoxygenase and inducible cyclooxygenase (COX-2) enzymes, composition and use” (Ortho Pharmaceutical Corporation, priority 1997, dated 1998).
# Legend:
# 5-lipoxygenase (5-LO) = target: T1, 5-lipoxygenase (5-LO) (Rattus norvegicus, UniProt P12527); test: RBL-1 cell 5-lipoxygenase and cyclooxygenase - Homogenate (Procedure I); type: biochemical; details: RBL-1 homogenate supernatant, 5-HETE; read-out: Procedure I (5-LO) Homog. IC50
# T1 construct: endogenous in cells; host or cells: intact RBL-1 (rat basophilic leukemia) cells, stimulated with calcium ionophore A23187
# T1 sequence (P12527 1-673): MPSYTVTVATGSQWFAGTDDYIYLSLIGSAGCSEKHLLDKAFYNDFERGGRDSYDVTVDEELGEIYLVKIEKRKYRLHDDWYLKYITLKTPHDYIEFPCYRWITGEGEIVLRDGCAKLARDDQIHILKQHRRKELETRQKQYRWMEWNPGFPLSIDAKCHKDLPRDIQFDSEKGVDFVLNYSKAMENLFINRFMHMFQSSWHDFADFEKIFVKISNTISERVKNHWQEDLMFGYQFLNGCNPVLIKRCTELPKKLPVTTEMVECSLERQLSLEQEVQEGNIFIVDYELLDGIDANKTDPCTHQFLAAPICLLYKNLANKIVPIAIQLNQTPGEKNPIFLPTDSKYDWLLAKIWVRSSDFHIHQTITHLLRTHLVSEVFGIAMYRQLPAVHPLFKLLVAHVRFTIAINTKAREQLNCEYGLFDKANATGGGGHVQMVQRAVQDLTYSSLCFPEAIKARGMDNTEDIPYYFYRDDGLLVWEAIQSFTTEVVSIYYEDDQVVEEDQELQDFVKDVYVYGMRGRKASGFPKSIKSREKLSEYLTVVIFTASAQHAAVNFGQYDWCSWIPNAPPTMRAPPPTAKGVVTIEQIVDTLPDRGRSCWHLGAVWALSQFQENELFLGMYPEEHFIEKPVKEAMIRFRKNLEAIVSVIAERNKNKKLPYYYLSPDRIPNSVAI
# Protocol: RBL-1 cell 5-lipoxygenase and cyclooxugenase - Homogenate
# Rat basophilic leukemia cells (RBL-1; 5×10^7 viable cells/mL) were disrupted by homogenization on ice (four 20 sec bursts) with a Brinkman polytron. […] The homogenate was then centrifuged at 9,220×g for 48 minutes at 4° C. The pellet was discarded and the supernatant was saved as the source of enzymes. The supernatant was pre-incubated for five minutes at 37° C. in the presence of 2 mM of CaCl2 and compound or vehicle (1% DMSO). The conversion of AA into products by CO and LO was initiated by adding 10 μL (50 μCi) of 1-^14 C-AA to each tube and incubated at 37° C. for 20 minutes. The reaction was stopped by adjusting the pH of each sample to 3 to 3.5 with 2M formic acid. Samples were extracted with three volumes of chloroform to isolate the products of 5-LO formed during the reaction. Fractions were dried under nitrogen, then resuspended in 40 μL of chloroform and spotted onto silica gel HL plates. The plates were developed in A-9 solvent. The dried plates were analyzed using a Bioscan Imaging TLC scanner to determine the percentage of radiolabelled M converted to 5-HETE (LO product) and PGD2 (CO product) in each sample.
# [1] = target: T2, Human Prostaglandin H2 Synthase Typ II (Cox-2) (Homo sapiens, UniProt P35354); test: Human Prostaglandin H2 Synthase Typ II (Cox-2) Whole Cell Assay, ECV-304 cells (Procedure III); type: cell-based; details: ECV-304 whole cells, PGE2 produced; read-out: Procedure III (COX-2) Wh Cell IC50
# T2 construct: endogenous in cells; host or cells: ECV-304 cells treated with PMA and ionomycin for 16 hours
# T2 sequence (P35354 18-604): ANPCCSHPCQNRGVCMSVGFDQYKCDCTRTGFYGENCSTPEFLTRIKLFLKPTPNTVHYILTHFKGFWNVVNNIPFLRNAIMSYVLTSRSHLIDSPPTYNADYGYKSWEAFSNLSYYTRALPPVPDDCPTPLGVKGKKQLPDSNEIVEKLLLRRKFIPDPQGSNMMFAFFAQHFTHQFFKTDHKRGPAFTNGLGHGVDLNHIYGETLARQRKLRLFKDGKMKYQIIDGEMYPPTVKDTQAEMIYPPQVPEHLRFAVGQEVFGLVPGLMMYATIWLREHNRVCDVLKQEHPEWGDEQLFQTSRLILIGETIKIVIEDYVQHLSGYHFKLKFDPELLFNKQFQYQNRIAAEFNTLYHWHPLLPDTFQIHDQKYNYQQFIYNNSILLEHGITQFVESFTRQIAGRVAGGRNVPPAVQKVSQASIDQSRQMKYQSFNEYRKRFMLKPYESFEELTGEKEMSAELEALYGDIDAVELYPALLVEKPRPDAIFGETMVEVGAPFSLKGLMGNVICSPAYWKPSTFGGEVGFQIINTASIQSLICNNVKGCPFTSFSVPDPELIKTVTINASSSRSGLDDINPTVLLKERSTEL
# Protocol: Human Prostaglandin H2 Synthase Typ II (Cox-2) Whole Cell Assay (Multiple Concentrations)
# ECV-304 (human, endothelial, umbilical cord) cells are maintained in culture in a suitable medium, and are trypsinized and plated at a density of 1×10^6 cells per well of a 6 well plate prior to assay. Approximately 28 hours later, 50 μg/ml PMA and […] ionomycin (both final concentrations) are added to each well and incubated for an additional 16 hours. Vehicle or test compounds are incubated with the cells for five minutes prior to initiation of Cox-2 enzyme activity by the addition of 30 μM arachidonic acid. Ten minutes later, an aliquot of the supernatant is withdrawn and the amount of PGE2 present quantitated by radioimmunoassay. Activity, reported as percent inhibition of PGE2 produced, is calculated as follows: […]
smiles,measurement,setting,value
CS(=O)(=O)Nc1ccc(Oc2ccc(F)cc2)s1 [Example 1],IC50,5-lipoxygenase (5-LO),130 nM
same,IC50,[1],1810 nM
